Common to all, as to assay type: in vivo, mice
For assay [1], the system named is BoM-1833 cells. Briefly: Bone metastasis assay, intracardiac injection of TGFβ-pretreated BoM-1833 cells. The settings on record: BoM-1833 cells pre-incubated with TGFβ. As to the method: (§1) FIGS. 3A-D. (A) LM2 cells and a clinically-derived pleural effusion sample (CN34.2A) were pretreated with TGFβ for 6 h. LM2 (2×10^5) and CN34.2A (4×10^5) cells were injected into the lateral tail vein and lung colonization was analyzed by in vivo bioluminescence imaging. (B) Bar graph represents 24 h time point measurements of the normalized photon flux from animals injected with either LM2 or CN34.2A cells. (C) Bone metastasis assays were performed by intracardiac injection of LM2 or BoM-1833 cells (3×10^4). Samples were pretreated with […] of TGFβ for 6 h and compared to an untreated control. (D) Bar graphs represent seven-day time point analysis of the normalized photon flux from the mouse hind limbs.
(§2) To investigate the selectivity of this lung metastasis-priming effect, we tested the effect of TGFβ pre-incubation on the establishment of bone metastases. […]
(§3) For primary tumor analysis, 5×10^5 viable single cells were re-suspended in a 1:1 mixture of PBS and growth-factor-reduced Matrigel (BD Biosciences) and injected orthotopically into both mammary gland number four in a total volume of 100 μL as previously described (Minn et al., 2005). Primary tumor growth rates were analyzed by measuring tumour length (L) and width (W), and calculating tumor volume based on the formula […]. […] Lung metastatic progression was again monitored and quantified using bioluminescence. […]

In assay [2] the test system is CN34.2A cells. The experiment in a line: Lung colonization (priming) assay, tail vein injection of TGFβ-pretreated CN34.2A cells. The following applies: CN34.2A cells pre-treated with TGFβ 6 h; 24 h time point, normalized photon flux. Here is the method:
as §1, with “(D) Bar graphs represent seven-day time point analysis of the normalized photon flux from the mouse hind limbs.” left out
(§4) All animal work was done in accordance with a protocol approved by the MSKCC Institutional Animal Care and Use Committee. […] Seven days after mastectomies, lung metastases were monitored and quantified using non-invasive bioluminescence as previously described (Minn et al., 2005).
as §3

Assay [3] deals with LM2 cells. The experiment in a line: Bone metastasis assay, intracardiac injection of TGFβ-pretreated LM2 cells. The settings on record: LM2 cells pre-treated with TGFβ prior to inoculation into the arterial circulation. Here is the method:
as §1, §2, §3

In assay [4] the test system is LM2 cells. The experiment in a line: Lung colonization (priming) assay, tail vein injection of TGFβ-pretreated LM2 cells. As to the method: as §1, with “(D) Bar graphs represent seven-day time point analysis of the normalized photon flux from the mouse hind limbs.” left out
as §4, §3

With “TGFβ: cytokine transforming growth factor beta; TGFβ1 (R&D Systems) used to treat cells for 3 or 6 h”, the “ability to form bone metastases” value in assay [1] and in assay [3] was “did not increase” throughout. Further, the “early seeding of the bones” value in assay [1] (seven-day time point, hind limbs) is “no discernible effect”. In addition, the “increase of lung seeding activity” value in assay [2] is recorded as “five”; in assay [4] (LM2 cells pre-treated with TGFβ 6 h, 24 h time point, normalized photon flux), “three”. In addition, in assay [4] (LM2 cells incubated with TGFβ for 6 h prior to tail vein inoculation, 24 h after inoculation, bioluminescence), the “lung colonizing activity (retention of cells in the lungs)” value was “significantly increased”.

The record behind these values is US20110053804A1, “Gene Signatures for the Prognosis of Cancer” (SLOAN-KETTERING INSTITUTE FOR CANCER RESEARCH, priority 2008, published 2011).
